Experimental data published in article doi:10.1101/2024.12.09.627564, “Cannabinoid inhibition of mechanosensitive K^+ channels” (bioRxiv, 2024).
Changes are numbered by the printed parent chain.

Columns and labels:
[1] = parameters: method as in PMID 32804502; settings: slice recordings; cited from earlier work
TRAAKA270P = molecular target: T1, TRAAKA270P (Homo sapiens, UniProt Q9NYG8, A244P); experiment: Excised patch recording of TRAAK mutant A270P; assay type: biochemical
T1 construct: The transcribed messages encode H. sapiens TRAAK amino acids 1–393; expressed in transfected cells; host or cells: Xenopus laevis oocytes, cRNA injection
T1 sequence (Q9NYG8 1-393 A244P): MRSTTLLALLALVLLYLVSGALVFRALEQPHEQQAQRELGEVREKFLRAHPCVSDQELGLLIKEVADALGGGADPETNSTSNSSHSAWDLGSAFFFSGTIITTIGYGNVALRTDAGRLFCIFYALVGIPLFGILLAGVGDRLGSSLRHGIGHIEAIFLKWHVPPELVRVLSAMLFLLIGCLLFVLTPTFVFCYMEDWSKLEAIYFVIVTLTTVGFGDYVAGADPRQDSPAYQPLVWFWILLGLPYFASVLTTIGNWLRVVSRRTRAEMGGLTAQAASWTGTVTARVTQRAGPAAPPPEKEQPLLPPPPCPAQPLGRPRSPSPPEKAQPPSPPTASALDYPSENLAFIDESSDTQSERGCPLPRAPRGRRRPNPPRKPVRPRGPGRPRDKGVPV
Excerpt: (§1) For patch clamp recording from Xenopus oocytes, genes encoding full-length Homo sapiens TRAAK (UniProt Q9NYG8–2), TREK-1 (UniProt O95069), and TREK-2 (UniProt P57789) were codon optimized for eukaryotic expression, synthesized (Genewiz), and cloned into a modified pGEMHE vector using Xho1 and EcoR1 restriction sites. The transcribed messages encode H. sapiens TRAAK amino acids 1–393, TREK-1 amino acids 1–426, or TREK-2 amino acids 1–538 with an additional three amino acids (SNS) at the C terminus. TRAAK mutants were introduced by polymerase chain reaction (PCR). Linearized DNA was transcribed in vitro using T7 polymerase. Complementary RNA (0.1 to 10 ng for TRAAK, TREK-1, TREK-2, and mutants) in 50 nL H2O was injected into Xenopus laevis oocytes extracted from anesthetized frogs. Currents were recorded at 25 °C from inside-out patches excised from oocytes 1 to 5 d after RNA injection. […]
(§2) Patches were evaluated with voltage-step protocols to confirm TRAAK expression and minimal non-specific leak based on reversal potential. Currents were recorded using an Axopatch 200B amplifier (Molecular Devices) at a bandwidth of 1 kHz and digitized with an Digidata 1550B (Molecular Devices) at 100–500 kHz using pClamp10.7 software. […] In an effort to minimize variability associated with differences in resting membrane tension, we targeted patches with low basal curvature and low resting channel activity and ensured measured pressure difference across the patch was as close to zero as possible at rest to prevent mechanical activation of channels. Data were analyzed using Clampfit 10.7, Excel, and Graphpad Prism software. […]
(§3) To avoid cannabinoid absorption to plastic, cannabinoid solutions were made in glass vials and diluted by weight, perfusion was performed using glass tubing pulled from borosilicate glass Pasteur pipettes (Fisherbrand, Cat# 13–678-20C), and recordings were performed in glass chambers. Channel activity was continuously recorded during perfusion steps. […]

TRAAKA198E = molecular target: T2, TRAAKA198E (Homo sapiens, UniProt Q9NYG8, A172E); experiment: Excised patch recording of TRAAK mutant A198E; assay type: biochemical
T2 construct: The transcribed messages encode H. sapiens TRAAK amino acids 1–393; expressed in transfected cells; host or cells: Xenopus laevis oocytes, cRNA injection
T2 sequence (Q9NYG8 1-393 A172E): T1 sequence (Q9NYG8 1-393 A244P) with A172E, P244A
Excerpt: as §1, §2, §3

TRAAKP259L = molecular target: T3, TRAAKP259L (Homo sapiens, UniProt Q9NYG8, P233L); experiment: Excised patch recording of TRAAK mutant P259L; assay type: biochemical
T3 construct: The transcribed messages encode H. sapiens TRAAK amino acids 1–393; expressed in transfected cells; host or cells: Xenopus laevis oocytes, cRNA injection
T3 sequence (Q9NYG8 1-393 P233L): T1 sequence (Q9NYG8 1-393 A244P) with P233L, P244A
Excerpt: as §1, with “Complementary RNA (0.1 to 10 ng for TRAAK, TREK-1, TREK-2, and mutants) in 50 nL H2O was injected into Xenopus laevis oocytes extracted from anesthetized frogs.” left out
as §2, with “channels.” for “channels. Data were analyzed using Clampfit 10.7, Excel, and Graphpad Prism software.”

C=C(C)[C@@H]1CCC(C)=C[C@H]1c1c(O)cc(CCCCC)cc1O [CBD, Cannabidiol]
concentration at which antiepileptic effects are observed [1]: ≤ 100 nM
IC50 (TRAAKA270P): 1.12 ± 0.04 µM
inhibition of channel activity at high concentration (TRAAKA270P; 10 μM CBD): fully inhibited
fold less sensitive than wild-type TRAAK (TRAAKA270P; A270P vs wild-type): ~ 8 fold
IC50 (TRAAKA198E): 0.496 ± 0.026 µM
inhibition of channel activity at high concentration (TRAAKA198E; 10 μM CBD): fully inhibited
fold less sensitive than wild-type TRAAK (TRAAKA198E; A198E vs wild-type): ~ 4 fold
IC50 (TRAAKP259L): 0.156 ± 0.008 µM
